# From patent US20170112831A1, “USE OF CCR1 ANTAGONISTS AS A TREATMENT FOR TUMORS OF THE CENTRAL NERVOUS SYSTEM” (priority 2015, published 2017)
# System: GL261 murine glioma cells
# Experiment: Microglia stimulated glioma invasion, Matrigel-coated invasion chamber coculture assay
# Type: cell-based
# Settings: 250 nM CCR1 antagonist, 48 hours, GL261 cocultured with microglia, vs DMSO; FIG. 1
# Description: Microglial stimulation of glioma invasion. CCR1 antagonists were screened using the glioblastoma cells and microglia invasion assay described below.
# GL261 murine glioma cells expressing the fluorescent protein m-Cherry and microglial (MG) cells stained with cell tracker green (CMFDA; Invitrogen) were cocultured on Matrigel-coated invasion chambers (Becton, Dickinson and Company). Cells were plated at a density per invasion chamber of 100,000 labeled GL261 cells with an additional 150,000 unlabelled GL261 cells or with 50,000 unlabelled GL261 and 50,000 MG cells in M-SFM with 0.3% BSA. Invasion chambers were incubated for 48 hours in the presence of DMSO, or 250 nM of the CCR1 antagonist, after which they were fixed in 3.7% paraformaldehyde in PBS. Imaging of the cells on the bottom of the filter was performed using an AMG EVOS epifluorescent microscope. The extent of invasion was quantified by counting the number of glioblastoma cells (green) that were on the underside of the filter in at least seven 10× fields. The final number of invasive cells in the control was multiplied by 0.75 to normalize.
compound,measurement,value
Cc1nnc([C@H]2CCCN2C(=O)Nc2ccc(C(F)(F)F)cc2)n1Cc1ccc(Cl)cc1 [Compound #1],reduction in the number of invasive glioma cells,greater than 50%
